According to patent publication US20130281467A1, “NOVEL MICROBICIDES” (SYNGENTA PARTICIPATIONS AG, priority 2010, published 2013):

Legend:
[1] = test system: Phaeosphaeria nodorum (Septoria nodorum); assay: Fungicidal activity against Phaeosphaeria nodorum (Septoria nodorum) / wheat / leaf disc preventative (glume blotch); type: in vivo; details: Parastagonospora nodorum, foliar, wheat leaf segments, inoculated 2 days after application, compared to untreated, read-out: disease control
How it was run: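 Wheat cv. Kanzler leaf segments on agar, sprayed with diluted formulated compound, then spore-inoculated 2 days later. Kept at 20 °C, 75% rh, 12 h light/12 h dark; percent disease control versus untreated scored once untreated discs show disease, 5–7 days after application.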

[2] = test system: Pyrenophora teres; assay: Fungicidal activity against Pyrenophora teres / barley / leaf disc preventative (net blotch); type: in vivo; details: foliar, barley leaf segments, inoculated 2 days after application, compared to untreated, read-out: disease control
How it was run: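 Barley leaf segments (cv. Hasso) on agar sprayed with formulated compound in water, then spore-inoculated 2 days later. Kept at 20 °C, 65% rh, 12 h light/dark; disease control versus untreated scored 5-7 days after application.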

[3] = test system: Mycosphaerella arachidis (Cercospora arachidicola); assay: Fungicidal activity against Mycosphaerella arachidis (Cercospora arachidicola) / liquid culture (early leaf spot); type: cell-based; details: 4-5 days after application, read-out: disease control (inhibition of growth, photometrically)
How it was run: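 Cryopreserved conidia in potato dextrose broth added to compound in DMSO in microtiter plates. Incubation at 24 °C; growth inhibition read photometrically 4-5 days after application.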

[4] = test system: Glomerella lagenarium (Colletotrichum lagenarium); assay: Fungicidal activity against Glomerella lagenarium (Colletotrichum lagenarium) / liquid culture (anthracnose); type: cell-based; details: Colletotrichum orbiculare, 3-4 days after application, read-out: disease control (inhibition of growth, photometrically)
How it was run: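 Cryostored conidia mixed into potato dextrose broth were added to test compound in DMSO. Plates were incubated at 24° C. Growth inhibition was measured photometrically 3-4 days after application.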

[5] = test system: Monographella nivalis (Microdochium nivale); assay: Fungicidal activity against Monographella nivalis (Microdochium nivale) / liquid culture (foot rot cereals); type: cell-based; details: 4-5 days after application, read-out: disease control (inhibition of growth, photometrically)
How it was run: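 Conidia in potato dextrose broth added to microtiter wells holding test compound in DMSO. Incubated at 24° C.; growth inhibition read photometrically 4-5 days after application.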

[6] = test system: Thanatephorus cucumeris (Rhizoctonia solani); assay: Fungicidal activity against Thanatephorus cucumeris (Rhizoctonia solani) / liquid culture (foot rot, damping-off); type: cell-based; details: 3-4 days after application, read-out: disease control (inhibition of growth, photometrically)
How it was run: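 Fungal mycelia fragments from fresh liquid culture were mixed into potato dextrose broth and added to test compounds supplied in DMSO. Incubation was at 24° C. Growth inhibition was read photometrically 3-4 days after application.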

[7] = test system: Mycosphaerella graminicola (Septoria tritici); assay: Fungicidal activity against Mycosphaerella graminicola (Septoria tritici) / liquid culture (Septoria blotch); type: cell-based; details: Zymoseptoria tritici, 4-5 days after application, read-out: disease control (inhibition of growth, photometrically)
How it was run: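 Cryo-stored conidia were suspended in potato dextrose broth and added to test compound dispensed from DMSO solution. Plates were held at 24° C., and growth inhibition was measured photometrically 4-5 days after application.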

[8] = test system: Alternaria solani; assay: Fungicidal activity against Alternaria solani / tomato / leaf disc (early blight); type: in vivo; details: foliar, tomato leaf disks, inoculated 2 days after application, compared to untreated, read-out: disease control
Procedure: Fungicidal Activity Against Alternaria solani/Tomato/Leaf Disc (Early Blight) Tomato leaf disks cv. Baby were placed on agar in multiwell plates (24-well format) and sprayed with the formulated test compound diluted in water. The leaf disks were inoculated with a spore suspension of the fungus 2 days after application. The inoculated leaf disks were incubated at 23° C./21° C.

[9] = test system: Puccinia recondita f. sp. tritici; assay: Fungicidal activity against Puccinia recondita f. sp. tritici / wheat / leaf disc preventative (brown rust); type: in vivo; details: foliar, wheat leaf segments, inoculated 1 day after application, compared to untreated, read-out: disease control
How it was run: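 Wheat leaf segments (cv. Kanzler) on agar sprayed with formulated compound in water, inoculated with spore suspension 1 day later. Incubated at 19° C, 75% rh, 12 h light/12 h dark; percent disease control versus untreated scored 7-9 days after application.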

[10] = test system: Botryotinia fuckeliana (Botrytis cinerea); assay: Fungicidal activity against Botryotinia fuckeliana (Botrytis cinerea) / liquid culture (gray mould); type: cell-based; details: 3-4 days after application, read-out: disease control (inhibition of growth, photometrically)
How it was run: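 Conidia from cryogenic storage were mixed into Vogels broth and added to wells containing compound in DMSO. Plates incubated at 24 °C; growth inhibition read photometrically 3–4 days after application.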

[11] = test system: Gaeumannomyces graminis; assay: Fungicidal activity against Gaeumannomyces graminis / liquid culture (take-all of cereals); type: cell-based; details: 4-5 days after application, read-out: disease control (inhibition of growth, photometrically)
How it was run: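 Cryostored mycelial fragments in potato dextrose broth added to 96-well plates with test compound in DMSO. Plates kept at 24° C; growth inhibition measured photometrically 4-5 days after application.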

[12] = test system: Blumeria graminis f. Sp. tritici (Erysiphe graminis f. sp. tritici); assay: Fungicidal activity against Blumeria graminis f. sp. tritici / wheat / leaf disc preventative (powdery mildew on wheat); type: in vivo; details: foliar, wheat leaf segments, inoculated 1 day after application, compared to untreated, read-out: disease control
How it was run: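 Wheat cv. Kanzler leaf segments on agar were sprayed with the formulated compound diluted in water and inoculated with powdery mildew 1 day later. Incubation was at 20 °C and 60% rh: 24 h dark, then 12 h light/12 h dark. Percent disease control versus untreated was scored 6–8 days after application.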

Row | melting point | SMILES | pest or weed control at 200 ppm [1] | pest or weed control at 200 ppm [2] | inhibition at 200 ppm [3] | inhibition at 200 ppm [4] | inhibition at 200 ppm [5] | inhibition at 200 ppm [6] | inhibition at 200 ppm [7] | pest or weed control at 200 ppm [8] | pest or weed control at 200 ppm [9] | inhibition at 200 ppm [10] | inhibition at 200 ppm [11] | pest or weed control at 200 ppm [12]
1 | 132 to 133 °C | Cc1ccccc1Cc1cccc(-c2ncc3c(n2)CCOC3)n1 [Compound 6, 2-[6-(2-methylbenzyl)-pyridin-2-yl]-7,8-dihydro-5H-pyrano[4,3-d]pyrimidine] | ≥ 80% | ≥ 80% | ≥ 80% | ≥ 80% | ≥ 80% | – | ≥ 80% | ≥ 80% | ≥ 80% | ≥ 80% | ≥ 80% | ≥ 80%
2 | 135 to 137 °C | COc1ccccc1Cc1cccc(-c2ncc3c(n2)CCOC3)n1 [Compound 7] | ≥ 80% | ≥ 80% | ≥ 80% | ≥ 80% | ≥ 80% | – | ≥ 80% | ≥ 80% | ≥ 80% | ≥ 80% | ≥ 80% | ≥ 80%

Second part, the compound before the results:

Row | SMILES | melting point | pest or weed control at 200 ppm [1] | pest or weed control at 200 ppm [2] | inhibition at 200 ppm [3] | inhibition at 200 ppm [4] | inhibition at 200 ppm [5] | inhibition at 200 ppm [6] | inhibition at 200 ppm [7] | pest or weed control at 200 ppm [8] | pest or weed control at 200 ppm [9] | inhibition at 200 ppm [10] | inhibition at 200 ppm [11] | pest or weed control at 200 ppm [12]
3 | Clc1ccccc1Cc1cccc(-c2ncc3c(n2)CCOC3)n1 [Compound 3] | 112 to 113 °C | ≥ 80% | ≥ 80% | ≥ 80% | ≥ 80% | ≥ 80% | ≥ 80% | ≥ 80% | ≥ 80% | ≥ 80% | ≥ 80% | ≥ 80% | ≥ 80%
4 | Clc1ccc(Cc2cccc(-c3ncc4c(n3)CCOC4)n2)cc1 [Compound 5] | 104 to 106 °C | ≥ 80% | ≥ 80% | ≥ 80% | ≥ 80% | ≥ 80% | ≥ 80% | ≥ 80% | ≥ 80% | ≥ 80% | ≥ 80% | ≥ 80% | ≥ 80%
5 | c1ccc(Cc2cccc(-c3ncc4c(n3)CCC3(C4)OCCO3)n2)cc1 [Compound 19] | 236 to 237 °C | ≥ 80% | ≥ 80% | ≥ 80% | ≥ 80% | ≥ 80% | ≥ 80% | ≥ 80% | ≥ 80% | ≥ 80% | ≥ 80% | ≥ 80% | ≥ 80%
6 | COc1ccc(Cc2cccc(-c3ncc4c(n3)CCOC4)n2)cc1 [Compound 21] | 216 to 219 °C | ≥ 80% | ≥ 80% | ≥ 80% | ≥ 80% | ≥ 80% | ≥ 80% | ≥ 80% | ≥ 80% | ≥ 80% | ≥ 80% | ≥ 80% | ≥ 80%
7 | Clc1ccccc1Cc1cccc(-c2ncc3c(n2)CCCCC3)n1 [Compound 33] | – | ≥ 80% | ≥ 80% | ≥ 80% | ≥ 80% | ≥ 80% | ≥ 80% | ≥ 80% | ≥ 80% | ≥ 80% | ≥ 80% | ≥ 80% | ≥ 80%
